Laboratory results published in ChEMBL document CHEMBL3044761, “Lethal Activity of a Trehalase Inhibitor, Validoxylamine A, against Mamestra brassicae and Spodoptera litura” (J Pestic Sci, 1994).

Assays:
[1] = Inhibition of Rhizoctonia solani alpha-glucosidase; conditions: read-out: I50
Trehalase = target: T1, Trehalase (Rattus norvegicus, UniProt O70282); test: Inhibition of Rattus norvegicus (rat) trehalase; conditions: read-out: I50
T1 sequence (O70282 whole entry): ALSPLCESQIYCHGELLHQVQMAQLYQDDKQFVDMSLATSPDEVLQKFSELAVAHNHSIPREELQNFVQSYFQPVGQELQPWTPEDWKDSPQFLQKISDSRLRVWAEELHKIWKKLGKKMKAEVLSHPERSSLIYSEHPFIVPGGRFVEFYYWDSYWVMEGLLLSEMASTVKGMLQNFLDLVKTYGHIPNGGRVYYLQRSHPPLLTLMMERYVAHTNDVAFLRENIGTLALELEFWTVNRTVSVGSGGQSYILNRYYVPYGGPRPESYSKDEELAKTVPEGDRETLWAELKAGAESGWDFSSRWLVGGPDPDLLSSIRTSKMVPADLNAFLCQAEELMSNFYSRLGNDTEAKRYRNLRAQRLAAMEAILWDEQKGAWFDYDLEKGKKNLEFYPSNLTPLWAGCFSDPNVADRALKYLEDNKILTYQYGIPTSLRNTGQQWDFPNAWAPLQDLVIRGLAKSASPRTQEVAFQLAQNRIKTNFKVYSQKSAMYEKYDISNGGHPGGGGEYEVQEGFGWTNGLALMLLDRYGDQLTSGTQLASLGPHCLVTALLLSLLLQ

Spodoptera litura [2] = test: Insecticidal activity against last-instar Spodoptera litura larvae assessed as mortality; format: functional
Mamestra brassicae [3] = test: Insecticidal activity against last-instar Mamestra brassicae larvae assessed as mortality; format: functional
Spodoptera litura [4] = test: Insecticidal activity against last-instar Spodoptera litura larvae assessed as larval pupal intermediate at 50 ug/larvae topical application (reference value: […]); format: functional
Spodoptera litura [5] = test: Insecticidal activity against last-instar Spodoptera litura larvae assessed as larval pupal intermediate injected at 50 ug/larvae (reference value: […]); format: functional
Spodoptera litura [6] = test: Insecticidal activity against last-instar Spodoptera litura larvae assessed as larval pupal intermediate injected at 10 ug/larvae (reference value: […]); format: functional
Spodoptera litura [7] = test: Insecticidal activity against last-instar Spodoptera litura larvae assessed as larval pupal intermediate injected at 0.4 ug/larvae (reference value: […]); format: functional
Spodoptera litura [8] = test: Insecticidal activity against last-instar Spodoptera litura larvae assessed as partial pupation at 50 ug/larvae topical application (reference value: […]); format: functional
Spodoptera litura [9] = test: Insecticidal activity against last-instar Spodoptera litura larvae assessed as partial pupation injected at 50 ug/larvae (reference value: 100%); format: functional
Spodoptera litura [10] = test: Insecticidal activity against last-instar Spodoptera litura larvae assessed as partial pupation injected at 10 ug/larvae (reference value: […]); format: functional
Spodoptera litura [11] = test: Insecticidal activity against last-instar Spodoptera litura larvae assessed as wing pad separation at 50 ug/larvae topical application (reference value: 100%); format: functional
Spodoptera litura [12] = test: Insecticidal activity against last-instar Spodoptera litura larvae assessed as wing pad separation injected at 50 ug/larvae (reference value: 100%); format: functional
Spodoptera litura [13] = test: Insecticidal activity against last-instar Spodoptera litura larvae assessed as wing pad separation injected at 10 ug/larvae (reference value: 100%); format: functional
Spodoptera litura [14] = test: Insecticidal activity against last-instar Spodoptera litura larvae assessed as wing pad separation injected at 2 ug/larvae (reference value: 100%); format: functional
Spodoptera litura [15] = test: Insecticidal activity against last-instar Spodoptera litura larvae assessed as wing pad separation injected at 0.4 ug/larvae (reference value: 100%); format: functional
Spodoptera litura [16] = test: Insecticidal activity against last-instar Spodoptera litura larvae assessed as normal pupae at 50 ug/larvae topical application (reference value: 100%); format: functional
[17] = Inhibition of Rhizoctonia solani beta-glucosidase; conditions: read-out: I50
Mamestra brassicae [18] = test: Insecticidal activity against last-instar Mamestra brassicae larvae assessed as partial pupation injected at 50 ug/larvae (reference value: 10%); format: functional
Mamestra brassicae [19] = test: Insecticidal activity against last-instar Mamestra brassicae larvae assessed as partial pupation injected at 5 ug/larvae (reference value: 10%); format: functional
Mamestra brassicae [20] = test: Insecticidal activity against last-instar Mamestra brassicae larvae assessed as wing pad separation at 50 ug/larvae oral administration (reference value: 0%); format: functional
Mamestra brassicae [21] = test: Insecticidal activity against last-instar Mamestra brassicae larvae assessed as wing pad separation at 50 ug/larvae topical application (reference value: 0%); format: functional
Mamestra brassicae [22] = test: Insecticidal activity against last-instar Mamestra brassicae larvae assessed as wing pad separation injected at 50 ug/larvae (reference value: 0%); format: functional
Mamestra brassicae [23] = test: Insecticidal activity against last-instar Mamestra brassicae larvae assessed as wing pad separation injected at 5 ug/larvae (reference value: 0%); format: functional
Mamestra brassicae [24] = test: Insecticidal activity against last-instar Mamestra brassicae larvae assessed as normal pupae at 50 ug/larvae oral administration (reference value: 90%); format: functional
Mamestra brassicae [25] = test: Insecticidal activity against last-instar Mamestra brassicae larvae assessed as normal pupae at 50 ug/larvae topical application (reference value: 90%); format: functional
Mamestra brassicae [26] = test: Insecticidal activity against last-instar Mamestra brassicae larvae assessed as normal pupae injected at 10 ug/larvae (reference value: 90%); format: functional
Mamestra brassicae [27] = test: Insecticidal activity against last-instar Mamestra brassicae larvae assessed as normal pupae injected at 1 ug/larvae (reference value: 90%); format: functional
Spodoptera litura [28] = test: Insecticidal activity against last-instar Spodoptera litura larvae assessed as normal pupae injected at 10 ug/larvae (reference value: 100%); format: functional
Spodoptera litura [29] = test: Insecticidal activity against last-instar Spodoptera litura larvae assessed as normal pupae injected at 2 ug/larvae (reference value: 100%); format: functional
Mamestra brassicae [30] = test: Insecticidal activity against last-instar Mamestra brassicae larvae assessed as larval-pupal intermediate at 50 ug/larvae oral administration (reference value: 0%); format: functional
Mamestra brassicae [31] = test: Insecticidal activity against last-instar Mamestra brassicae larvae assessed as larval-pupal intermediate at 50 ug/larvae topical application (reference value: 0%); format: functional
Mamestra brassicae [32] = test: Insecticidal activity against last-instar Mamestra brassicae larvae assessed as larval-pupal intermediate injected at 50 ug/larvae (reference value: 0%); format: functional
Mamestra brassicae [33] = test: Insecticidal activity against last-instar Mamestra brassicae larvae assessed as larval-pupal intermediate injected at 10 ug/larvae (reference value: 0%); format: functional
Mamestra brassicae [34] = test: Insecticidal activity against last-instar Mamestra brassicae larvae assessed as larval-pupal intermediate injected at 5 ug/larvae (reference value: 0%); format: functional
Mamestra brassicae [35] = test: Insecticidal activity against last-instar Mamestra brassicae larvae assessed as larval-pupal intermediate injected at 1 ug/larvae (reference value: 0%); format: functional
Mamestra brassicae [36] = test: Insecticidal activity against last-instar Mamestra brassicae larvae assessed as partial pupation at 50 ug/larvae topical application (reference value: 10%); format: functional

OCC1=C[C@H](N[C@H]2C[C@H](CO)[C@@H](O)[C@H](O)[C@H]2O)[C@H](O)[C@@H](O)[C@@H]1O [VALIDOXYLAMINE A]
IC50 [1]: > 1000 µM | IC50 (Trehalase): 0.0049 µM | LD50 (Spodoptera litura [2]): 2.42 µg | LD50 (Mamestra brassicae [3]): <1 µg | Activity (Spodoptera litura [4]): 5% | Activity (Spodoptera litura [5]): 58% | Activity (Spodoptera litura [6]): 25% | Activity (Spodoptera litura [7]): 0% | Activity (Spodoptera litura [8]): 5% | Activity (Spodoptera litura [9]): 30% | Activity (Spodoptera litura [10]): 40% | Activity (Spodoptera litura [11]): 5% | Activity (Spodoptera litura [12]): 13% | Activity (Spodoptera litura [13]): 15% | Activity (Spodoptera litura [14]): 5% | Activity (Spodoptera litura [15]): 5% | Activity (Spodoptera litura [16]): 85% | IC50 [17]: > 1000 µM | Activity (Mamestra brassicae [18]): 0% | Activity (Mamestra brassicae [19]): 27% | Activity (Mamestra brassicae [20]): 10% | Activity (Mamestra brassicae [21]): 0% | Activity (Mamestra brassicae [22]): 0% | Activity (Mamestra brassicae [23]): 7% | Activity (Mamestra brassicae [24]): 90% | Activity (Mamestra brassicae [25]): 60% | Activity (Mamestra brassicae [26]): 0% | Activity (Mamestra brassicae [27]): 27% | Activity (Spodoptera litura [28]): 20% | Activity (Spodoptera litura [29]): 60% | Activity (Mamestra brassicae [30]): 0% | Activity (Mamestra brassicae [31]): 0% | Activity (Mamestra brassicae [32]): 100% | Activity (Mamestra brassicae [33]): 80% | Activity (Mamestra brassicae [34]): 60% | Activity (Mamestra brassicae [35]): 27% | Activity (Mamestra brassicae [36]): 40%
